Measured values taken from patent US10183943B2, “Heterocyclic compounds and their use in preventing or treating bacterial infections” (MUTABILIS, priority 2015, dated 2019).
Counter-ions that a name gives are not always drawn.

Columns and labels:
OXA-48 = molecular target: T1, OXA-48 (Klebsiella pneumoniae, UniProt Q6XEC0); assay: β-lactamase inhibitory activity, determination of IC50 (nitrocefin hydrolysis); format: biochemical; conditions: class (D); nitrocefin 200 μM, 30 min pre-incubation; read-out: IC50 β-lactamase OXA-48
T1 construct: made in house; host or cells: E. coli

[1] = tested on: E. coli UFR61O (TEM-1, KPC-2); assay: MIC of compounds alone, broth microdilution; format: cell-based; conditions: Escherichia coli; strain UFR61O (E. coli); read-out: MIC compounds of the invention alone
Method in brief: (§1)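 CLSI broth microdilution with compounds alone, spotted from DMSO, against log-phase bacteria at 5×10^5 cfu/mL in cation-adjusted Mueller-Hinton broth. Plates incubated 16-20 h at 35 °C in ambient air; MIC was the lowest concentration preventing visible growth.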

[2] = tested on: E. coli UFR74 (SHV-1, DHA-1); assay: MIC of compounds alone, broth microdilution; format: cell-based; conditions: Escherichia coli; strain UFR74 (E. coli); read-out: MIC compounds of the invention alone
Method in brief: as §1

[3] = tested on: K. pneumoniae 160143 (TEM-1, SHV-1, CTX-M-15, KPC-2, OXA-1); assay: MIC of compounds alone, broth microdilution; format: cell-based; conditions: Klebsiella pneumoniae, read-out: MIC compounds of the invention alone
Method in brief: as §1

E. coli RGN238 (OXA-1) = assay: MIC of compounds alone, broth microdilution; format: cell-based; conditions: Escherichia coli; strain RGN238 (E. coli); read-out: MIC compounds of the invention alone
Method in brief: as §1

[4] = tested on: E. coli UFR32 (TEM-1, VEB-1, OXA-10); assay: MIC of compounds alone, broth microdilution; format: cell-based; conditions: Escherichia coli; strain UFR32 (E. coli); read-out: MIC compounds of the invention alone
Method in brief: as §1

[5] = tested on: E. coli UFR18 (CTX-M-15, OXA-204); assay: MIC of compounds alone, broth microdilution; format: cell-based; conditions: Escherichia coli; strain UFR18 (E. coli); read-out: MIC compounds of the invention alone
Method in brief: as §1

[6] = tested on: K. pneumoniae 200047 (TEM-1, SHV-32, CTX-M-15, OXA-1); assay: MIC of compounds alone, broth microdilution; format: cell-based; conditions: Klebsiella pneumoniae, read-out: MIC compounds of the invention alone
Method in brief: as §1

[7] = tested on: K. pneumoniae BAA-1898 (TEM-1, SHV-11, SHV-12, KPC-2); assay: MIC of compounds alone, broth microdilution; format: cell-based; conditions: Klebsiella pneumoniae, BAA1898; strain BAA-1898 (K. pneumoniae); read-out: MIC compounds of the invention alone
Method in brief: as §1

[8] = tested on: K. pneumoniae 6299 (TEM-1, SHV-11, OXA-163); assay: MIC of compounds alone, broth microdilution; format: cell-based; conditions: Klebsiella pneumoniae; strain 6299 (K. pneumoniae); read-out: MIC compounds of the invention alone
Method in brief: as §1

[9] = tested on: K. pneumoniae UFR24 (TEM-1, SHV-2, SHV-11, OXA-1, OXA-48, OXA-47); assay: MIC of compounds alone, broth microdilution; format: cell-based; conditions: Klebsiella pneumoniae; strain UFR24 (K. pneumoniae); read-out: MIC compounds of the invention alone
Method in brief: as §1

[10] = tested on: K. pneumoniae UFR39 (CTX-M-15, NDM-1); assay: MIC of compounds alone, broth microdilution; format: cell-based; conditions: Klebsiella pneumoniae; strain UFR39 (K. pneumoniae); read-out: MIC compounds of the invention alone
Method in brief: as §1

[11] = tested on: E. coli 131119 (TEM-1, OXA-48); assay: MIC of compounds alone, broth microdilution; format: cell-based; conditions: Escherichia coli; strain 131119 (E. coli); read-out: MIC compounds of the invention alone
Method in brief: as §1

[12] = tested on: K. oxytoca UFR21 (TEM-1, CTX-M-15, OXA-48); assay: MIC of compounds alone, broth microdilution; format: cell-based; conditions: Klebsiella oxytoca, read-out: MIC compounds of the invention alone
Method in brief: as §1

E. cloacae P99 (AmpC) = assay: MIC of compounds alone, broth microdilution; format: cell-based; conditions: Enterobacter cloacae; strain P99 (E. cloacae); read-out: MIC compounds of the invention alone
Method in brief: as §1

[13] = tested on: K. pneumoniae UFR77 (CMY-2); assay: MIC of compounds alone, broth microdilution; format: cell-based; conditions: Klebsiella pneumoniae; strain UFR77 (K. pneumoniae); read-out: MIC compounds of the invention alone
Method in brief: as §1

[14] = tested on: P. aeruginosa CIP107051 (TEM-24); assay: MIC of compounds alone, broth microdilution; format: cell-based; conditions: Pseudomonas aeruginosa; strain CIP107051 (P. aeruginosa); read-out: MIC compounds of the invention alone
Method in brief: as §1

[15] = tested on: E. cloacae UFR51 (SHV-12, IMP-8); assay: MIC of compounds alone, broth microdilution; format: cell-based; conditions: Enterobacter cloacae; strain UFR51 (E. cloacae); read-out: MIC compounds of the invention alone
Method in brief: as §1

[16] = tested on: E. coli UFR41 (TEM-1, CTX-M-15, CMY-2, OXA-1, NDM-4); assay: MIC of compounds alone, broth microdilution; format: cell-based; conditions: Escherichia coli, read-out: MIC compounds of the invention alone
Method in brief: as §1

SHV-1 = molecular target: T2, SHV-1 (Klebsiella pneumoniae, UniProt P0AD64); assay: β-lactamase inhibitory activity, determination of IC50 (nitrocefin hydrolysis); format: biochemical
T2 construct: made in house; host or cells: E. coli

OXA-11 = molecular target: T3, OXA-11 (Pseudomonas aeruginosa, UniProt Q06778); assay: as above; format: biochemical
T3 construct: made in house; host or cells: E. coli

CTX-M-15 = molecular target: T4, CTX-M-15 (Escherichia coli, UniProt Q9EXV5); assay: as above; format: biochemical; conditions: class (A); nitrocefin 200 μM, 30 min pre-incubation; read-out: IC50 β-lactamase CTX-M-15
T4 construct: made in house; host or cells: E. coli

AmpC (P99) = AmpC (P99) (Enterobacter cloacae, UniProt P05364); assay: as above
Sequence of AmpC (P99) (P05364 21-381): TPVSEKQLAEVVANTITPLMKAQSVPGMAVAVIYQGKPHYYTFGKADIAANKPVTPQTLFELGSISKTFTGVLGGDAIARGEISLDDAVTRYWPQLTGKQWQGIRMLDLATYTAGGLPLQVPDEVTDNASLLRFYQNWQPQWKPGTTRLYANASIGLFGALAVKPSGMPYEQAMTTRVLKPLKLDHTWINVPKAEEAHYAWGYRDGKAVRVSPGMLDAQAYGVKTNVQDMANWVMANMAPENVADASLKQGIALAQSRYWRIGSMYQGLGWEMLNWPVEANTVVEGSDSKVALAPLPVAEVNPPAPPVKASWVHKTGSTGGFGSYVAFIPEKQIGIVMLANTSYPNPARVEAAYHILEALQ

T3 sequence (Q06778 21-266): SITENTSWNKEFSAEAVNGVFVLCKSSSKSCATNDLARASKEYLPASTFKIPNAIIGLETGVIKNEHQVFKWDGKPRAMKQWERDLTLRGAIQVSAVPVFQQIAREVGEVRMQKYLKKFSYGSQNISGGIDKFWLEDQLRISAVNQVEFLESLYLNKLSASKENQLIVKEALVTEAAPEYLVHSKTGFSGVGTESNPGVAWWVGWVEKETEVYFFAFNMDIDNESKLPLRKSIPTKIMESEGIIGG
T1 sequence (Q6XEC0 23-265 limits assumed): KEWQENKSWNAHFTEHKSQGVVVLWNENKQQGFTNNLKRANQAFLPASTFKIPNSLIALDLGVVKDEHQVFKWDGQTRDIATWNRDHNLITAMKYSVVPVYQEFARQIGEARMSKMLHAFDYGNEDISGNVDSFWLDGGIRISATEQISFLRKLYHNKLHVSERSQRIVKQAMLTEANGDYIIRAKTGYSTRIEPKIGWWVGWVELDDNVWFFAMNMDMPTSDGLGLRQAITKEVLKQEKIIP
T4 sequence (Q9EXV5 entry or part of it): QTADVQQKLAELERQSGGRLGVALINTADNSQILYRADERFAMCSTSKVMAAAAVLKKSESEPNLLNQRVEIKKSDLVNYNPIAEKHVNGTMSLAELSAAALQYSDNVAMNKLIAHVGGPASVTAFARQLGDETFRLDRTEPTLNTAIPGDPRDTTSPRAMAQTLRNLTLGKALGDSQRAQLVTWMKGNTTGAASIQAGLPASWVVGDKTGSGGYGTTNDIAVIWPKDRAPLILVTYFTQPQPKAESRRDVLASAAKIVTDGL
T2 sequence (P0AD64 22-286): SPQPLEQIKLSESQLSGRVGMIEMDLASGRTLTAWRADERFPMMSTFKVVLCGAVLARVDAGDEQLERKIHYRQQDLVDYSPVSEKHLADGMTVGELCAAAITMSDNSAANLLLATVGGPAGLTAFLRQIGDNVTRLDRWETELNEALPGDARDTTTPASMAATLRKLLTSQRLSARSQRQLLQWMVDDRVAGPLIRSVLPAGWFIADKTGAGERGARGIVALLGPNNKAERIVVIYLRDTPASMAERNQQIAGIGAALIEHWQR

Compound | IC50 (OXA-48) | MIC [1] | MIC [2] | MIC [3] | MIC (E. coli RGN238 (OXA-1)) | MIC [4] | MIC [5] | MIC [6] | MIC [7] | MIC [8] | MIC [9] | MIC [10] | MIC [11] | MIC [12] | MIC (E. cloacae P99 (AmpC)) | MIC [13] | MIC [14] | MIC [15] | MIC [16] | IC50 (SHV-1) | further results
Cn1cc(C2=CCN3CC2N(OS(=O)(=O)[O-])C3=O)cnc1=O.[Na+] (stereo not drawn) [Example 15, Sodium [4-(N-methyl-2-oxo-pyrimidin-5-yl)-7-oxo-1,6-diazabicyclo[3.2.1]oct-3-en-6-yl] sulfate] | 7.9 nM | 8 µg/mL | > 32 µg/mL | > 32 µg/mL | 16 µg/mL | 1 µg/mL | 0.5 µg/mL | > 32 µg/mL | > 32 µg/mL | > 32 µg/mL | > 32 µg/mL | 0.5 µg/mL | 4 µg/mL | 32 µg/mL | 2 µg/mL | > 32 µg/mL | > 32 µg/mL | 0.5 µg/mL | > 32 µg/mL | 12 nM | IC50 (OXA-11): 2600 nM; IC50 (CTX-M-15): 6.3 nM; IC50 (AmpC (P99)): 2000 nM
O=C1N2CC(c3ncco3)=C[C@H](C2)N1OS(=O)(=O)[O-].[Na+] [Example 44, Sodium [(5R)-3-(oxazol-2-yl)-7-oxo-1,6-diazabicyclo[3.2.1]oct-3-en-6-yl] sulfate] | 1.5 nM | 4 µg/mL | 2 µg/mL | 1 µg/mL | 1 µg/mL | 1 µg/mL | 1 µg/mL | 1 µg/mL | 4 µg/mL | 4 µg/mL | 2 µg/mL | 4 µg/mL | 0.5 µg/mL | 4 µg/mL | 4 µg/mL | 2 µg/mL | > 32 µg/mL | 1 µg/mL | 4 µg/mL | 6 nM | IC50 (OXA-11): 46 nM; IC50 (CTX-M-15): 0.61 nM; IC50 (AmpC (P99)): 10 nM
Cn1ncc(C2=CCN3CC2N(OS(=O)(=O)[O-])C3=O)cc1=O.[Na+] (stereo not drawn) [Example 19, Sodium [4-(1-methyl-6-oxo-pyridazin-4-yl)-7-oxo-1,6-diazabicyclo[3.2.1]oct-3-en-6-yl] sulfate] | 4.7 nM | > 32 µg/mL | > 32 µg/mL | > 32 µg/mL | 32 µg/mL | > 32 µg/mL | 4 µg/mL | > 32 µg/mL | > 32 µg/mL | > 32 µg/mL | > 32 µg/mL | 4 µg/mL | 2 µg/mL | > 32 µg/mL | 8 µg/mL | > 32 µg/mL | > 32 µg/mL | 4 µg/mL | > 32 µg/mL | 8.9 nM | IC50 (OXA-11): 290 nM; IC50 (CTX-M-15): 5.4 nM; IC50 (AmpC (P99)): 940 nM
O=C1N2CC=C(c3cnco3)C(C2)N1OS(=O)(=O)[O-].[Na+] (stereo not drawn) [Example 3, Sodium [4-(oxazol-5-yl)-7-oxo-1,6-diazabicyclo[3.2.1]oct-3-en-6-yl]sulfate] | 3.5 nM | 16 µg/mL | > 32 µg/mL | > 32 µg/mL | 16 µg/mL | > 32 µg/mL | 2 µg/mL | > 32 µg/mL | > 32 µg/mL | > 32 µg/mL | > 32 µg/mL | 4 µg/mL | 4 µg/mL | > 32 µg/mL | 8 µg/mL | > 32 µg/mL | > 32 µg/mL | 2 µg/mL | > 32 µg/mL | 6.9 nM | IC50 (OXA-11): 1100 nM; IC50 (CTX-M-15): 2.8 nM; IC50 (AmpC (P99)): 770 nM
O=C1N2CC(c3ncco3)=CC(C2)N1OS(=O)(=O)[O-].[Na+] (stereo not drawn) [Example 25, Sodium [3-(oxazol-2-yl)-7-oxo-1,6-diazabicyclo[3.2.1]oct-3-en-6-yl]sulfate] | 6.6 nM | 8 µg/mL | 4 µg/mL | 4 µg/mL | 2 µg/mL | 2 µg/mL | 2 µg/mL | 2 µg/mL | 4 µg/mL | 8 µg/mL | 4 µg/mL | 8 µg/mL | 2 µg/mL | 4 µg/mL | 8 µg/mL | 4 µg/mL | > 128 µg/mL | 4 µg/mL | 16 µg/mL | 15 nM | IC50 (OXA-11): 190 nM; IC50 (CTX-M-15): 15 nM; IC50 (AmpC (P99)): 64 nM
NCc1cnc(C2=CC3CN(C2)C(=O)N3OS(=O)(=O)O)s1 (stereo not drawn) [Example 38, [3-[5-(aminomethyl)thiazol-2-yl]-7-oxo-1,6-diazabicyclo[3.2.1]oct-3-en-6-yl] hydrogen sulfate] | 7.7 nM | 2 µg/mL | 32 µg/mL | 8 µg/mL | 32 µg/mL | 32 µg/mL | 0.5 µg/mL | 8 µg/mL | > 32 µg/mL | > 32 µg/mL | > 32 µg/mL | 0.5 µg/mL | 4 µg/mL | 16 µg/mL | 4 µg/mL | 32 µg/mL | > 32 µg/mL | 1 µg/mL | 1 µg/mL | 4.3 nM | IC50 (OXA-11): 560 nM; IC50 (CTX-M-15): 0.79 nM; IC50 (AmpC (P99)): 31 nM
